The record followed here is patent US4952598A, “3-phenyl indolinone derivatives, processes for their preparation, medicaments containing them, and their use” (Hoechst Aktiengesellschaft, priority 1985, dated 1990).

Structures can show the parent of a compound that is named as a salt.

The target of the assay is calcium channels. As to the kind of experiment: 3H-nitrendipine binding (nitrendipine displacement) test. The settings on record: 3H-nitrendipine 0.1 nM, rat brain cortex membranes, pH 7.4, 25° C., 60 min. Here is the method:
Their calcium-antagonistic activity can be shown in the biochemical test model of displacement of tritium-labeled nitrendipine.
This entails membrane preparations which contain isolated calcium channels being loaded with labeled substance.
After incubation with the test substance, the radioactivity which has been released into the supernatant solution is determined. […] The compounds of the formula I are likewise very active in other test models with which a calcium-antagonistic action can be detected, for example the coronary blood flow in the isolated guinea pig heart, or the action potential of the isolated guinea pig papillary muscle.
The test of the activity of substances in the ^3 H-nitrendipine binding test was carried out in a membrane preparation obtained from the cortex of the rat brain and washed several times, the method used essentially being that described by R.J. Gould et al. (Proc. Natl. Acad. Sci. USA 79, 3656 [1982]). The membrane suspension was diluted 1:1500 with TRIS buffer pH 7.4 (50 mM TRIS.HCl, 150 mM NaCl, 1.0 mM CaCl2 and 0.001% by weight, based on TRIS.HCl, NaCl and CaCl2 in solution, of a neutral surface-active substance such as, for example, Genapol^(R)) was incubated in 5 ml portions with ^3 H-nitrendipine (0.1 nM in the test, specific activity 81.3 Ci/mmol) in a shaking water bath at 25° C. for 60 min. The membrane fractions were removed by vacuum filtration through Whatman GF/F glass fiber filters, and the radioactivity was measured in a liquid scintillation counter. The unspecific ^3 H-nitrendipine binding was determined in the presence of 1 μM nifedipine.
As for `COc1ccc(CCN(C)CCCCOc2ccccc2C2(Cc3ccccc3)C(=O)N(C)c3ccccc32)cc1OC` (stereo not shown) [Example 1, 3-Benzyl-3-[2-(4-(N-(2-(3,4-dimethoxyphenyl)ethyl)-N-methylamino)butoxy)phenyl]-1-methylindolin-2-one hydrochloride], the IC50 worked out at 8000 nM.

As to `COc1ccc(CCN(C)CCCCOc2ccccc2C2(C(C)C)C(=O)N(C)c3ccccc32)cc1OC` (stereo not shown) [Example 3, 3-[2-(4-(N-(2-(3,4-dimethoxyphenyl)ethyl)-N-methylamino)butoxy)-phenyl]-3-isopropyl-1-methylindolin-2-one hydrochloride], the IC50 turned out to be 22 nM.

Take `CC(C)C1(c2ccccc2OCCCCN2CCN(CCCC(c3ccc(F)cc3)c3ccc(F)cc3)CC2)C(=O)N(C)c2ccccc21` (stereo not shown) [Example 5, 3-[2-(4-(4-(4-bis(4-fluorophenyl)butyl)-1-piperazinyl)butoxy)phenyl]-3-isopropyl-1-methylindolin-2-one dihydrochloride]: the IC50 was determined as 13 nM.

In the case of `COc1cc(CN2CCN(CCCCOc3ccccc3C3(C(C)C)C(=O)N(C)c4ccccc43)CC2)cc(OC)c1OC` (stereo not shown) [Example 6, 3-Isopropyl-1-methyl-3-[2-(4-(4-(3,4,5-trimethoxybenzyl)-1-piperazinyl)butoxy)phenyl)indolin-2-one dichydrochloride], the concentration for half-maximal inhibition (IC50) came out at 44 nM.
